System: 186277-243-T-J2-PDC complex spheroid viability
Assay: Anticancer human tumor 186277-243-T-J2-PDC patient-derived colon adenocarcinoma cell line growth inhibition [GQUAD]
Conditions: for IC50: curve of first compound; for viability, T/C: stronger effect = lower value; active means viability on the fitted dose curve at most 10% of control; inactive means the rest
From the text: DNA G-quadruplex Stabilizer Agents in Combinations in Complex Spheroids
A high-throughput screen of multi-cell type tumor spheroids was designed to identify active combinations of DNA G-quadruplex stabilizer agents and targeted small molecules. Complex spheroids include a stromal component modeled by human endothelial cells (HUVEC) and fibroblasts modeled by human mesenchymal stem cells (MSCs). The concentration ranges selected for each drug and investigational agent were based upon clinically achievable concentrations if the clinical Cmax of the agent was known.
Compounds. The drugs and investigational agents: pidnarulex (CX-5461; NSC782164), APTO-253 (NSC789042), BRACO-19 (NSC847499), peposertib (NSC802822), ceralasertib (NSC780249), elimusertib (NSC800525), camonsertib (NSC841442), AZD-1390 (NSC803789), olaparib (NSC753686), talazoparib (NSC767125), ART-558 (NSC835418), sotorasib (NSC818433), MRTX-1133 (NSC836407), SN-38 (NSC673596), topotecan (NSC609699), etoposide (NSC141540), doxorubicin (NSC123127), gemcitabine (NSC613327), 5-fluorouracil (NSC19893), paclitaxel (NSC125973), vemurafenib (NSC761431), panobinostat (NSC761190), R-306465 (JNJ-16241199; NSC773264), adavosertib (NSC754352), TP-3654 (NSC805149), carboplatin (NSC241240), KSQ-4279 (NSC840948), and staurosporine (NSC755774) were obtained from the National Cancer Institute (NCI) Developmental Therapeutics Program Chemical Repository (34). The FDA-approved anticancer drug set is available from the NCI Developmental Therapeutics Program. […] The stock solutions were prepared in dimethyl sulfoxide (DMSO, Sigma-Aldrich, St. Louis, MO, cat. D2650) at 800-fold the tested concentration and stored at -70 degrees C prior to their use. All drugs and investigational agents were tested over a range starting from a high concentration at or near the clinical Cmax and decreasing in half-log increments. If the clinical Cmax for an agent had not been determined, the highest concentration tested was 10 microM.
2.3 Cell Culture. All cells were maintained in an incubator at 37 degrees C and 5% CO2 with 95% humidity. The PDC lines were cultured according to standard operating procedures established by the NCI PDMR. All PDCs were thawed and cultured in Matrigel-coated flasks prepared with a working solution of 1X Ham's F-12 nutrient mix, without supplementation (Invitrogen, cat. 11765054), 100 U/mL penicillin-streptomycin (Invitrogen, cat. 15140122), and 2.5% Matrigel (Corning Inc., cat. 354248) for the first three passages. The 857933-349-R-J2-PDC line was cultured in 6C/Colon 1B media, which includes advanced DMEM/F-12 (Thermo Fisher Scientific, cat. 12634028), 10 mM HEPES (Thermo Fisher Scientific, cat. 15630080), 1X GlutaMAX supplement (Thermo Fisher Scientific, cat. 35050061), 0.1 mg/mL primocin (InvivoGen, cat. ant-pm-2), 10% defined fetal bovine serum, heat inactivated (HyClone Laboratories Inc., cat. SH30070.03HI), 50% L-WRN conditioned media (ATCC, cat. CRL-3276), 1.25 mM N-Acetyl-L-cysteine (Sigma-Aldrich, cat. A9165), 10 mM nicotinamide (Sigma-Aldrich, cat. N0636), 1X B-27 supplement (Thermo Fisher Scientific, cat. 17504044), 1X N-2 supplement (Thermo Fisher Scientific, cat. 17502048), 10 microM Y-27632 dihydrochloride (Tocris Bioscience, cat. 1254), and 50 ng/mL human EGF recombinant protein (Thermo Fisher Scientific, cat. PHG0311). The 485176-168-R4-J1-PDC line was cultured in Panc media, which includes all 6C/Colon 1B media components plus 100 ng/mL human FGF-10 (Thermo Fisher Scientific, cat. 100-26), 500 nM SB-431542 (Selleckchem, cat. S1067), and gastrin (Tocris, cat. 3006).
[…]

[1] = second compound 0.0316 µM, first compound 0.0316 µM
[2] = second compound 0.0316 µM, first compound 0.1 µM
[3] = second compound 0.0316 µM, first compound 0.316 µM
[4] = second compound 0.0316 µM, first compound 1 µM
[5] = second compound 0.0316 µM, first compound 3.16 µM
[6] = second compound 0.0316 µM, first compound 10 µM
[7] = second compound 0.1 µM, first compound 0.0316 µM
[8] = second compound 0.1 µM, first compound 0.1 µM
[9] = second compound 0.1 µM, first compound 0.316 µM
[10] = second compound 0.1 µM, first compound 1 µM
[11] = second compound 0.1 µM, first compound 3.16 µM
[12] = second compound 0.1 µM, first compound 10 µM
[13] = second compound 0.316 µM, first compound 0.0316 µM
[14] = second compound 0.316 µM, first compound 0.1 µM
[15] = second compound 0.316 µM, first compound 0.316 µM
[16] = second compound 0.316 µM, first compound 1 µM
[17] = second compound 0.316 µM, first compound 3.16 µM
[18] = second compound 0.316 µM, first compound 10 µM
[19] = second compound 1 µM, first compound 0.0316 µM
[20] = second compound 1 µM, first compound 0.1 µM
[21] = second compound 1 µM, first compound 0.316 µM
[22] = second compound 1 µM, first compound 1 µM
[23] = second compound 1 µM, first compound 3.16 µM
[24] = second compound 1 µM, first compound 10 µM
[25] = second compound 3.16 µM, first compound 0.0316 µM
[26] = second compound 3.16 µM, first compound 0.1 µM
[27] = second compound 3.16 µM, first compound 0.316 µM
[28] = second compound 3.16 µM, first compound 1 µM
[29] = second compound 3.16 µM, first compound 3.16 µM
[30] = second compound 3.16 µM, first compound 10 µM
[31] = second compound 10 µM, first compound 0.0316 µM
[32] = second compound 10 µM, first compound 0.1 µM
[33] = second compound 10 µM, first compound 0.316 µM
[34] = second compound 10 µM, first compound 1 µM
[35] = second compound 10 µM, first compound 3.16 µM
[36] = second compound 10 µM, first compound 10 µM
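Further: spheroids exposed to drugs for 7 days.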

Cc1cccc(N(C)C(=O)C2C(O)CCN2c2nc(C)cc(C(F)(F)F)c2C#N)c1 (centres undefined) + Cc1[nH]c2ccc(F)cc2c1-c1nc2c3cccnc3c3ncccc3c2[nH]1
inactive: viability, T/C [1] 104% | viability, T/C [2] 104% | viability, T/C [3] 98.2% | viability, T/C [4] 95.8% | viability, T/C [5] 88.7% | viability, T/C [6] 106% | viability, T/C [7] 104% | viability, T/C [8] 97.1% | viability, T/C [9] 100% | viability, T/C [10] 92.6% | viability, T/C [11] 95.5% | viability, T/C [12] 96.3% | viability, T/C [13] 92.6% | viability, T/C [14] 105% | viability, T/C [15] 99.8% | viability, T/C [16] 98% | viability, T/C [17] 105% | viability, T/C [18] 104% | viability, T/C [19] 128% | viability, T/C [20] 85.8% | viability, T/C [21] 98.2% | viability, T/C [22] 98.3% | viability, T/C [23] 97% | viability, T/C [24] 108% | viability, T/C [25] 127% | viability, T/C [26] 89.3% | viability, T/C [27] 98.2% | viability, T/C [28] 105% | viability, T/C [29] 99.9% | viability, T/C [30] 113% | viability, T/C [31] 90.9% | viability, T/C [32] 101% | viability, T/C [33] 109% | viability, T/C [34] 92.2% | viability, T/C [35] 98.8% | viability, T/C [36] 99.9%
> 10 µM: IC50 (second compound 0.0316 µM) | IC50 (second compound 0.1 µM) | IC50 (second compound 0.316 µM) | IC50 (second compound 1 µM) | IC50 (second compound 3.16 µM) | IC50 (second compound 10 µM)

C=CC(=O)N1CCN(c2nc(=O)n(-c3c(C)ccnc3C(C)C)c3nc(-c4c(O)cccc4F)c(F)cc23)C(C)C1 (centres undefined) + CN(C)c1ccc(Nc2c3ccc(NC(=O)CCN4CCCC4)cc3nc3cc(NC(=O)CCN4CCCC4)ccc23)cc1
inactive: viability, T/C [1] 105% | viability, T/C [2] 85.5% | viability, T/C [3] 90.1% | viability, T/C [4] 81.7% | viability, T/C [5] 104% | viability, T/C [6] 96.6% | viability, T/C [7] 111% | viability, T/C [8] 96.1% | viability, T/C [9] 101% | viability, T/C [10] 71.9% | viability, T/C [11] 111% | viability, T/C [12] 88.3% | viability, T/C [13] 104% | viability, T/C [14] 94.6% | viability, T/C [15] 87.3% | viability, T/C [16] 90.5% | viability, T/C [17] 92.6% | viability, T/C [18] 95.2% | viability, T/C [19] 93.9% | viability, T/C [20] 89.8% | viability, T/C [21] 88.4% | viability, T/C [22] 101% | viability, T/C [23] 105% | viability, T/C [24] 97.3% | viability, T/C [25] 95.3% | viability, T/C [26] 87.2% | viability, T/C [27] 97.6% | viability, T/C [28] 89.8% | viability, T/C [29] 101% | viability, T/C [30] 95.3% | viability, T/C [31] 91.7% | viability, T/C [32] 80.2% | viability, T/C [33] 98.4% | viability, T/C [34] 96% | viability, T/C [35] 111% | viability, T/C [36] 88.1%
> 10 µM: IC50 (second compound 0.0316 µM) | IC50 (second compound 0.1 µM) | IC50 (second compound 0.316 µM) | IC50 (second compound 1 µM) | IC50 (second compound 3.16 µM) | IC50 (second compound 10 µM)

Reference: PubChem BioAssay AID2060512 (Molecular Pharmacology Branch, DTP, NCI, 2025)
